According to patent US20190216761A1, “COMPOSITIONS COMPRISING 15-HEPE AND METHODS OF USING THE SAME” (Afimmune Limited, priority 2015, published 2019):
Marks after values point to notes of the source that are not given here.

Tests used:
[1] = test system: rPPARδ; assay: PPAR agonist reporter assay (Gal4 hybrid receptor, luciferase); format: cell-based, rat
Description: (§1) This study utilized proprietary reporter cells expressing a hybrid receptor comprising the N-terminal Gal4 DNA binding domain fused to the ligand binding domain of the specific human nuclear receptor (hPPARα, hPPARδ, and hPPARγ) and rat nuclear receptor (rPPARα, rPPARδ, and rPPARγ). The reporter vectors used in this Example comprise the firefly luciferase gene functionally linked to the Gal4 upstream activation sequence.
Nuclear Receptor assay was performed by dispensing 100 μL of a suspension of Reporter Cells in Cell Recovery Medium (CRM) containing 10% charcoal stripped FBS into each well of a white 96-well plate. Test compounds were diluted using compound screening medium (CSM) containing 10% charcoal stripped FBS to generate “2×-concentration” treatment media. Immediately after this dilution step, 100 μL of each diluted 2×-concentration treatment medium was dispensed (in triplicate) into the Reporter Cell-containing assay wells.
After incubation at 37° C. for 24 hours, the treatment media was discarded. 100 μL of Luciferase Detection Reagent substrate was added to each well and RLUs were quantified from each well to determine nuclear receptor activities.

[2] = target: T1, rPPARα (Rattus norvegicus, UniProt P37230); assay: PPAR antagonist reporter assay (reference agonist at EC80); format: cell-based; settings: for inhibition of rat PPARs (in words), rPPARα: at higher test concentrations
T1 construct: expressed in transfected cells
T1 sequence (P37230 239-466 limits assumed): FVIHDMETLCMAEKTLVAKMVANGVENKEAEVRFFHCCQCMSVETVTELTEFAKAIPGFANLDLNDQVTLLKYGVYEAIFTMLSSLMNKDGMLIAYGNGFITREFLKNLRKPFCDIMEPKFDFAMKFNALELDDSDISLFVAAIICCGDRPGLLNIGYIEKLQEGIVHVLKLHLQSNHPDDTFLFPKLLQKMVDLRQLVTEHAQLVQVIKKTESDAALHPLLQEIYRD
Description: as §1
(§2) Nuclear Receptor assay was performed by suspending Reporter Cells in CRM containing 10% charcoal stripped FBS. 2×-EC80 concentrations of the appropriate reference agonist were then added to the Reporter Cell suspension, and 100 μL of the mixture dispensed into wells of a white 96-well plate. Test compounds were diluted using compound screening medium (CSM) containing 10% charcoal stripped FBS to generate “2×-concentration” treatment media. Immediately after this dilution step, 100 μL of each diluted 2×-concentration treatment medium was dispensed (in triplicate) into the Reporter Cell-containing assay wells.
(§3) After incubation at 37° C. for 24 hours, the treatment media was discarded. Each well was rinsed once with LCM Buffer; LCM substrate was then added. After incubation for 30 minutes at 37° C., fluorescence was measured to determine the relative number of live cells per assay well. LCM substrate was then discarded and 100 μL of Luciferase Detection Reagent substrate was added to each well. RLUs were quantified from each well to determine nuclear receptor activities.

[3] = target: T2, hPPARα (Homo sapiens, UniProt Q07869); assay: as above; format: cell-based; settings: for inhibition of human PPARs (in words), hPPARα: at higher test concentrations
T2 construct: expressed in transfected cells
T2 sequence (Q07869 239-466 limits assumed): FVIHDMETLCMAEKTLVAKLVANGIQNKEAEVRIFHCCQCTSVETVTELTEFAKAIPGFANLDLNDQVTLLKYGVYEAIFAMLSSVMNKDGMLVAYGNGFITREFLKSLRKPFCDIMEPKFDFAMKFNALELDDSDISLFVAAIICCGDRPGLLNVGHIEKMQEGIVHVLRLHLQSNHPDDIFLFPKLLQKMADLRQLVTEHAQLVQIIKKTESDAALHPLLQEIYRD
Description: as §1, §2, §3

[4] = target: T3, hPPARδ (Homo sapiens, UniProt Q03181); assay: as above; format: cell-based; settings: for inhibition of human PPARs (in words), hPPARδ: at higher test concentrations
T3 construct: expressed in transfected cells
T3 sequence (Q03181 211-439 limits assumed): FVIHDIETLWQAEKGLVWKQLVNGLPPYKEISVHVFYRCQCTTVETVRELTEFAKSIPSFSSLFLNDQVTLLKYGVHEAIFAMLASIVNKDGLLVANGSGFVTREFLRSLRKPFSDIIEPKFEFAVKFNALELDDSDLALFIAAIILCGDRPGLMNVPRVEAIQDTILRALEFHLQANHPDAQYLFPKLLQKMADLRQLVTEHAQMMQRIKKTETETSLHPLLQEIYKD
Description: as §1, §2, §3

CC/C=C\C/C=C\C/C=C\C/C=C\C/C=C\CCCC(=O)OCC [EPA-EE, EPA ethyl ester, reference compound]
Fold-Activation (vs. 0.10% DMSO) rPPAR-δ ([1]; 137 nM): 1.3 fold | Fold-Activation (vs. 0.10% DMSO) rPPAR-δ ([1]; 412 nM): 1.3 fold | Fold-Activation (vs. 0.10% DMSO) rPPAR-δ ([1]; 1,235 nM): 1.2 fold | Fold-Activation (vs. 0.10% DMSO) rPPAR-δ ([1]; 3,704 nM): 1.5 fold | Fold-Activation (vs. 0.10% DMSO) rPPAR-δ ([1]; 11,111 nM): 1.4 fold | Fold-Activation (vs. 0.10% DMSO) rPPAR-δ ([1]; 33,333 nM): 1.5 fold | Fold-Activation (vs. 0.10% DMSO) rPPAR-δ ([1]; 100,000 nM): 2.0 fold | Fold-Activation (vs. 0.10% DMSO) rPPAR-δ ([1]; 300,000 nM): 3.6* fold | % Inhibition of agonist-stimulated receptor activity vs. 0.10% DMSO, rPPAR-α ([2]; 137 nM): 51% | % Inhibition of agonist-stimulated receptor activity vs. 0.10% DMSO, rPPAR-α ([2]; 412 nM): 20% | % Inhibition of agonist-stimulated receptor activity vs. 0.10% DMSO, rPPAR-α ([2]; 1,235 nM): 5.7% | % Inhibition of agonist-stimulated receptor activity vs. 0.10% DMSO, rPPAR-α ([2]; 3,704 nM): 4.2% | % Inhibition of agonist-stimulated receptor activity vs. 0.10% DMSO, rPPAR-α ([2]; 11,111 nM): −4.7% | % Inhibition of agonist-stimulated receptor activity vs. 0.10% DMSO, rPPAR-α ([2]; 33,333 nM): 1.4% | % Inhibition of agonist-stimulated receptor activity vs. 0.10% DMSO, rPPAR-α ([2]; 100,000 nM): 13% | % Inhibition of agonist-stimulated receptor activity vs. 0.10% DMSO, rPPAR-α ([2]; 300,000 nM): 36% | inhibition of rat PPARs (in words), rPPARα [2]: does not exhibit similar inhibitory activity | % Inhibition of agonist-stimulated receptor activity vs. 0.10% DMSO, hPPAR-α ([3]; 137 nM): 35% | % Inhibition of agonist-stimulated receptor activity vs. 0.10% DMSO, hPPAR-α ([3]; 412 nM): 20% | % Inhibition of agonist-stimulated receptor activity vs. 0.10% DMSO, hPPAR-α ([3]; 1,235 nM): 18% | % Inhibition of agonist-stimulated receptor activity vs. 0.10% DMSO, hPPAR-α ([3]; 3,704 nM): 17% | % Inhibition of agonist-stimulated receptor activity vs. 0.10% DMSO, hPPAR-α ([3]; 11,111 nM): 11% | % Inhibition of agonist-stimulated receptor activity vs. 0.10% DMSO, hPPAR-α ([3]; 33,333 nM): 10% | % Inhibition of agonist-stimulated receptor activity vs. 0.10% DMSO, hPPAR-α ([3]; 100,000 nM): 7.1% | % Inhibition of agonist-stimulated receptor activity vs. 0.10% DMSO, hPPAR-α ([3]; 300,000 nM): 2.8% | inhibition of human PPARs (in words), hPPARα [3]: does not exhibit similar inhibitory activity | % Inhibition of agonist-stimulated receptor activity vs. 0.10% DMSO, hPPAR-δ ([4]; 137 nM): −3.4% | % Inhibition of agonist-stimulated receptor activity vs. 0.10% DMSO, hPPAR-δ ([4]; 412 nM): −8.9% | % Inhibition of agonist-stimulated receptor activity vs. 0.10% DMSO, hPPAR-δ ([4]; 1,235 nM): −5.5% | % Inhibition of agonist-stimulated receptor activity vs. 0.10% DMSO, hPPAR-δ ([4]; 3,704 nM): −15% | % Inhibition of agonist-stimulated receptor activity vs. 0.10% DMSO, hPPAR-δ ([4]; 11,111 nM): −7.9% | % Inhibition of agonist-stimulated receptor activity vs. 0.10% DMSO, hPPAR-δ ([4]; 33,333 nM): −18% | % Inhibition of agonist-stimulated receptor activity vs. 0.10% DMSO, hPPAR-δ ([4]; 100,000 nM): −6.8% | % Inhibition of agonist-stimulated receptor activity vs. 0.10% DMSO, hPPAR-δ ([4]; 300,000 nM): 11% | inhibition of human PPARs (in words), hPPARδ [4]: does not exhibit similar inhibitory activity

CC/C=C\C[C@H](O)/C=C/C=C\C/C=C\C/C=C\CCCC(=O)OCC [15-HEPE-EE, 15-HEPE ethyl ester]
Fold-Activation (vs. 0.10% DMSO) rPPAR-δ ([1]; 137 nM): 1.3 fold | Fold-Activation (vs. 0.10% DMSO) rPPAR-δ ([1]; 412 nM): 1.5 fold | Fold-Activation (vs. 0.10% DMSO) rPPAR-δ ([1]; 1,235 nM): 1.6 fold | Fold-Activation (vs. 0.10% DMSO) rPPAR-δ ([1]; 3,704 nM): 1.8 fold | Fold-Activation (vs. 0.10% DMSO) rPPAR-δ ([1]; 11,111 nM): 2.4* fold | Fold-Activation (vs. 0.10% DMSO) rPPAR-δ ([1]; 33,333 nM): 2.7* fold | Fold-Activation (vs. 0.10% DMSO) rPPAR-δ ([1]; 100,000 nM): 7.2* fold | Fold-Activation (vs. 0.10% DMSO) rPPAR-δ ([1]; 300,000 nM): 1.9 fold | agonism activity against rat PPARδ (in words) ([1]; at medium to higher doses in the dose response curve): mild to moderate agonism activity | % Inhibition of agonist-stimulated receptor activity vs. 0.10% DMSO, rPPAR-α ([2]; 137 nM): 42% | % Inhibition of agonist-stimulated receptor activity vs. 0.10% DMSO, rPPAR-α ([2]; 412 nM): 26% | % Inhibition of agonist-stimulated receptor activity vs. 0.10% DMSO, rPPAR-α ([2]; 1,235 nM): 25% | % Inhibition of agonist-stimulated receptor activity vs. 0.10% DMSO, rPPAR-α ([2]; 3,704 nM): 21% | % Inhibition of agonist-stimulated receptor activity vs. 0.10% DMSO, rPPAR-α ([2]; 11,111 nM): 21% | % Inhibition of agonist-stimulated receptor activity vs. 0.10% DMSO, rPPAR-α ([2]; 33,333 nM): 38% | % Inhibition of agonist-stimulated receptor activity vs. 0.10% DMSO, rPPAR-α ([2]; 100,000 nM): 79% | % Inhibition of agonist-stimulated receptor activity vs. 0.10% DMSO, rPPAR-α ([2]; 300,000 nM): 100% | inhibition of rat PPARs (in words), rPPARα [2]: apparent inhibition | % Inhibition of agonist-stimulated receptor activity vs. 0.10% DMSO, hPPAR-α ([3]; 137 nM): 49% | % Inhibition of agonist-stimulated receptor activity vs. 0.10% DMSO, hPPAR-α ([3]; 412 nM): 21% | % Inhibition of agonist-stimulated receptor activity vs. 0.10% DMSO, hPPAR-α ([3]; 1,235 nM): 13% | % Inhibition of agonist-stimulated receptor activity vs. 0.10% DMSO, hPPAR-α ([3]; 3,704 nM): 14% | % Inhibition of agonist-stimulated receptor activity vs. 0.10% DMSO, hPPAR-α ([3]; 11,111 nM): 14% | % Inhibition of agonist-stimulated receptor activity vs. 0.10% DMSO, hPPAR-α ([3]; 33,333 nM): 26% | % Inhibition of agonist-stimulated receptor activity vs. 0.10% DMSO, hPPAR-α ([3]; 100,000 nM): 40% | % Inhibition of agonist-stimulated receptor activity vs. 0.10% DMSO, hPPAR-α ([3]; 300,000 nM): 83% | inhibition of human PPARs (in words), hPPARα [3]: apparent inhibition | % Inhibition of agonist-stimulated receptor activity vs. 0.10% DMSO, hPPAR-δ ([4]; 137 nM): 0.68% | % Inhibition of agonist-stimulated receptor activity vs. 0.10% DMSO, hPPAR-δ ([4]; 412 nM): −7.7% | % Inhibition of agonist-stimulated receptor activity vs. 0.10% DMSO, hPPAR-δ ([4]; 1,235 nM): −11% | % Inhibition of agonist-stimulated receptor activity vs. 0.10% DMSO, hPPAR-δ ([4]; 3,704 nM): −10% | % Inhibition of agonist-stimulated receptor activity vs. 0.10% DMSO, hPPAR-δ ([4]; 11,111 nM): −10% | % Inhibition of agonist-stimulated receptor activity vs. 0.10% DMSO, hPPAR-δ ([4]; 33,333 nM): 1.6% | % Inhibition of agonist-stimulated receptor activity vs. 0.10% DMSO, hPPAR-δ ([4]; 100,000 nM): 29% | % Inhibition of agonist-stimulated receptor activity vs. 0.10% DMSO, hPPAR-δ ([4]; 300,000 nM): 100% | inhibition of human PPARs (in words), hPPARδ [4]: apparent inhibition
